Key:
Experiment in all cases: Kinase assay, binding constants (Kd), kinase-tagged T7 phage, qPCR
FGFR1 = FGFR1 (Homo sapiens (Human), UniProt P11362)
Experimental: (§1) Kinase-tagged T7 phage strains were prepared in an E. coli host derived from the BL21 strain. E. coli were grown to log-phase and infected with T7 phage and incubated with shaking at 32° C. until lysis. The lysates were centrifuged and filtered to remove cell debris. Streptavidin-coated magnetic beads were treated with biotinylated small molecule ligands for 30 minutes at room temperature to generate affinity resins for kinase assays. The liganded beads were blocked with excess biotin and washed with blocking buffer SeaBlock (Pierce), […], 1 mM DTT to remove unbound ligand and to reduce non-specific binding.
(§2) Test compounds were prepared as 111λ stocks in 10000 DMS0. Kds were determined using an 11-point 3-fold compound dilution series with three DMSO control points. […] The compounds were then diluted directly into the assays such that the final concentration of DMSO was 0.9%. All reactions performed in polypropylene 384-well plate. Each was a final volume of 0.02 ml. […] The beads were then re-suspended in elution buffer (1×PBS, 0.05% Tween […] non-biotinylated affinity ligand) and incubated at room temperature with shaking for 30 minutes. The kinase concentration in the eluates was measured by qPCR.
(§3) Binding constants were calculated with a standard dose-response curve using the Hill equation: […]
(§4) The Hill Slope was set to −1. Curves were fitted using a non-linear least square fit with the Levenberg-Marquardt algorithm.

FGFR2 = FGFR2 (Homo sapiens (Human), UniProt P21802)
FGFR2, sequence (P21802 22-821): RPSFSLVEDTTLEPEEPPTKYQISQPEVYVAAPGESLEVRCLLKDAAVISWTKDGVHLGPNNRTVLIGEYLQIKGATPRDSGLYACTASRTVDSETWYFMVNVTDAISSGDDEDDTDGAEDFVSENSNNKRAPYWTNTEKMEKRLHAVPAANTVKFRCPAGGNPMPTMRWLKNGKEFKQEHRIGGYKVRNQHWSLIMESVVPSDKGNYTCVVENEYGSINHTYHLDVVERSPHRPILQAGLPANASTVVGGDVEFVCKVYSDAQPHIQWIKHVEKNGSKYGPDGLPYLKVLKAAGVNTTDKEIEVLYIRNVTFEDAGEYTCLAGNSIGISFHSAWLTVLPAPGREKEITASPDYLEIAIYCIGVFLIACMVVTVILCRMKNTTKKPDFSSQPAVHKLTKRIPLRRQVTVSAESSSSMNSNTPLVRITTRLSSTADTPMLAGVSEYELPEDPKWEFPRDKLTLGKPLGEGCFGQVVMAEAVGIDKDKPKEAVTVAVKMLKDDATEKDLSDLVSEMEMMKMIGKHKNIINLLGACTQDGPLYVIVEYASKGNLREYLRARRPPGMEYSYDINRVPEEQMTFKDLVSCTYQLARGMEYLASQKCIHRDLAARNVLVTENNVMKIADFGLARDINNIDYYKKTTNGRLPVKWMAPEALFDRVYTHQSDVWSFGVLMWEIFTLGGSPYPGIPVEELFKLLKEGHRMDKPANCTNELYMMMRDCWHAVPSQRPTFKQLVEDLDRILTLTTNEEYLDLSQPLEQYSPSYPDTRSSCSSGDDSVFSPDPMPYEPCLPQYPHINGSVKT
Experimental: as §1, §2, §3, §4

FGFR3 = FGFR3 (Homo sapiens (Human), UniProt P22607)
FGFR3, sequence (P22607 23-806): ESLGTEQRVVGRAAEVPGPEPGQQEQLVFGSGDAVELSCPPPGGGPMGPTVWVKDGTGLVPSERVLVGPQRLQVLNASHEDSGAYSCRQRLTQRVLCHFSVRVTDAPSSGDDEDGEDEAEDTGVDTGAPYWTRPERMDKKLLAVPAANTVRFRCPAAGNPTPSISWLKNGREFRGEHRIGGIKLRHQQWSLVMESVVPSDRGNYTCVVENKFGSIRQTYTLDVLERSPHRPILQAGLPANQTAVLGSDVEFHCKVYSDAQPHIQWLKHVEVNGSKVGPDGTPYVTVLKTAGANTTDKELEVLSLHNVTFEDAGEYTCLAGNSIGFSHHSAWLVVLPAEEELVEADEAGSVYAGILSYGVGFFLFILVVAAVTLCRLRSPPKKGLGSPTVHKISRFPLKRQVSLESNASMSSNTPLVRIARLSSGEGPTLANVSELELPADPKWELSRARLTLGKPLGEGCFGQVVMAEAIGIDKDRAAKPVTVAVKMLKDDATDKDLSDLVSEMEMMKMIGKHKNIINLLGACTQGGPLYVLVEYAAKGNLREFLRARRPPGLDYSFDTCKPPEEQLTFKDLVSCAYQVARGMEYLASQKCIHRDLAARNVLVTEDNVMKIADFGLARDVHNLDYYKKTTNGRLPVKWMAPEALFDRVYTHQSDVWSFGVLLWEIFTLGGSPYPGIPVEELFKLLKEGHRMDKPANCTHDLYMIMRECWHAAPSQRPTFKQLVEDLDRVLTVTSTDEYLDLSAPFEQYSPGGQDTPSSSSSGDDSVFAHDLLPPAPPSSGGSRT
Experimental: as §1, §2, §3, §4

FGFR3 (V555M) = FGFR3 (V555M) (Homo sapiens (Human), UniProt P22607, V555M); settings: V555M mutant
FGFR3 (V555M), sequence (P22607 23-806 V555M): as the sequence (P22607 23-806) above, with V533M counted along it
Experimental: as §1, §2, §3, §4

FGFR4 = FGFR4 (Homo sapiens (Human), UniProt P22455)
FGFR4, sequence (P22455 22-802): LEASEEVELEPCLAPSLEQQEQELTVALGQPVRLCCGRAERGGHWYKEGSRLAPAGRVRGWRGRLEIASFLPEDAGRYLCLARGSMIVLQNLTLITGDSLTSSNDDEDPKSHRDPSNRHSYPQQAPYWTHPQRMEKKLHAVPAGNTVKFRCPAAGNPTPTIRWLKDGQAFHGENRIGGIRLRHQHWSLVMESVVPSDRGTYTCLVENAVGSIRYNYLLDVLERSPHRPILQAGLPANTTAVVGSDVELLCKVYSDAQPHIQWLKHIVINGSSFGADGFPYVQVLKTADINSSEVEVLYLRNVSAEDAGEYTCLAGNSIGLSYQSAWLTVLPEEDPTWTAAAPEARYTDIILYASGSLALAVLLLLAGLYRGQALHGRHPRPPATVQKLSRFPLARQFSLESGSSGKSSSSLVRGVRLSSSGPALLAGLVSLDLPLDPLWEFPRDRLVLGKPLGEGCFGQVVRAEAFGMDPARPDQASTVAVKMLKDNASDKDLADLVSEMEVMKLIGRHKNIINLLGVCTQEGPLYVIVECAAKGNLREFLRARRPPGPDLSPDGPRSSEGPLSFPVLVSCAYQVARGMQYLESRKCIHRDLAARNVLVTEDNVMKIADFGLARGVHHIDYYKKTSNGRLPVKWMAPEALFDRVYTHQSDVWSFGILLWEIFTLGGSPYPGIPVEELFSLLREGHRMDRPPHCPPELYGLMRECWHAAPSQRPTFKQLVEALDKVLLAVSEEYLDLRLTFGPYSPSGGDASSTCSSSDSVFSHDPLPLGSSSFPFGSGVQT
Experimental: as §1, §2, §3, §4

FGFR1, sequence (P11362 22-822): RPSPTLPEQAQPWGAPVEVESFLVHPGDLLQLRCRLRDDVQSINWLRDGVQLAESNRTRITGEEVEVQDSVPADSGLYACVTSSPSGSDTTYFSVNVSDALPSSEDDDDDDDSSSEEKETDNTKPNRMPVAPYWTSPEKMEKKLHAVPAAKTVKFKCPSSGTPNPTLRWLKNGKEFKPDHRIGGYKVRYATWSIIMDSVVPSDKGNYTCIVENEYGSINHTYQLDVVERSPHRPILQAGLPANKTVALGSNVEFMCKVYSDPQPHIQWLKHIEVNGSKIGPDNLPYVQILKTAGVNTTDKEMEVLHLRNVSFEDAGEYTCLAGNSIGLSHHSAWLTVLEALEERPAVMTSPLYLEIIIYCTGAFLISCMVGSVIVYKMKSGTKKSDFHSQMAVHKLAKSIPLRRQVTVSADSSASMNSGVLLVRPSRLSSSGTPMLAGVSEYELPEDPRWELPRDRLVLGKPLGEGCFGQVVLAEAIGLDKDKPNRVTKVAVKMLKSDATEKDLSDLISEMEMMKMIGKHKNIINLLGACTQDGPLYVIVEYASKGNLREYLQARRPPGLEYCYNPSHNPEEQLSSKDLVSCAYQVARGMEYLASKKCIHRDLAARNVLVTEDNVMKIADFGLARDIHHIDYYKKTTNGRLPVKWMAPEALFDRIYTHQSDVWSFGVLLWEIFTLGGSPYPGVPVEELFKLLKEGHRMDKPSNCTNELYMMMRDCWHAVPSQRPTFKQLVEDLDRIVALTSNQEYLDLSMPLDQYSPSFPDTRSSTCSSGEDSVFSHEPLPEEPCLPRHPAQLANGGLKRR

Row | Structure (SMILES) | Kd (FGFR1) [nM] | Kd (FGFR2) [nM] | Kd (FGFR3) [nM] | Kd (FGFR3 (V555M)) [nM] | Kd (FGFR4) [nM]
1 | COc1cc2[nH]nc(-c3cnc(N4CCC4)c(F)c3)c2cc1O[C@H](C)c1c(Cl)cncc1Cl [Example 268, (R)-3-(6-(azetidin-1-yl)-5-fluoropyridin-3-yl)-5-(1-(3,5-dichloropyridin-4-yl)ethoxy)-6-methoxy-1H-indazole] | 20 to 100 | 20 to 100 | 1 to 20 | 1 to 20 | 1 to 20
2 | C[C@@H](Oc1ccc2[nH]nc(-c3cnc(N4CCCC4)c(C#N)c3)c2c1)c1c(Cl)cncc1Cl [Example 285, 5-[5-[(1R)-1-(3,5-dichloro-4-pyridyl)ethoxy]-1H-indazol-3-yl]-2-pyrrolidin-1-yl-pyridine-3-carbonitrile] | > 300 | > 300 | 100 to 300 | 20 to 100 | 1 to 20
3 | COc1cc2[nH]nc(-c3cnc(N4CCC4)c(C#N)c3)c2cc1O[C@H](C)c1c(C)cnnc1C [Example 322, (R)-2-(azetidin-1-yl)-5-(5-(1-(3,5-dimethylpyridazin-4-yl)ethoxy)-6-methoxy-1H-indazol-3-yl)nicotinonitrile] | 100 to 300 | 20 to 100 | 20 to 100 | 1 to 20 | 1 to 20
4 | Cc1ncc(Cl)c([C@@H](C)Oc2ccc3[nH]nc(-c4cnc(N5CC6(C5)CN(S(C)(=O)=O)C6)c(F)c4)c3c2)c1Cl [Example 244, 5-[(1R)-1-(3,5-dichloro-2-methyl-4-pyridyl)ethoxy]-3-[5-fluoro-6-(2-methylsulfonyl-2,6-diazaspiro[3.3]heptan-6-yl)-3-pyridyl]-1H-indazole] | 20 to 100 | 20 to 100 | 1 to 20 | 1 to 20 | 1 to 20
5 | C[C@@H](Oc1ccc2[nH]nc(-c3ccc(N4CC5(CCOC5)C4)nc3)c2c1)c1c(Cl)cnc(F)c1Cl [Example 204, (R)-2-(5-(5-(1-(3,5-dichloro-2-fluoropyridin-4-yl)ethoxy)-1H-indazol-3-yl)pyridin-2-yl)-6-oxa-2-azaspiro[3.4]octane] | 20 to 100 | 1 to 20 | 1 to 20 | 1 to 20 | 20 to 100
6 | Cc1ncc(Cl)c([C@@H](C)Oc2ccc3[nH]nc(-c4ccc(N5CC6(CCC6)C5)nc4)c3c2)c1Cl [Example 212, 3-[6-(2-azaspiro[3.3]-heptan-2-yl)-3-pyridyl]-5-[(1R)-1-(3,5-dichloro-2-methyl-4-pyridyl)ethoxy]-1H-indazole] | > 300 | 100 to 300 | 20 to 100 | 1 to 20 | 100 to 300
7 | CC(C)N1CCC(n2cc(-c3n[nH]c4ccc(O[C@H](C)c5c(Cl)cncc5Cl)cc34)cn2)CC1 [Example 83, 5-[(1R)-1-(3,5-dichloro-4-pyridyl)ethoxy]-3-[1-(1-isopropyl-4-piperidyl)pyrazol-4-yl]-1H-indazole] | 1 to 20 | 1 to 20 | 1 to 20 | 1 to 20 | 20 to 100
8 | Cc1cc2[nH]nc(-c3cnc(N4CC5(C4)CN(S(C)(=O)=O)C5)c(C#N)c3)c2cc1O[C@H](C)c1c(Cl)cncc1Cl [Example 352, (R)-5-(5-(1-(3,5-dichloropyridin-4-yl)ethoxy)-6-methyl-1H-indazol-3-yl)-2-(6-(methylsulfonyl)-2,6-diazaspiro[3.3]heptan-2-yl)nicotinonitrile] | 20 to 100 | 100 to 300 | 1 to 20 | 1 to 20 | 1 to 20
9 | C[C@@H](Oc1ccc2[nH]nc(-c3cnc(N4CCC[C@H]4CO)c(C#N)c3)c2c1)c1c(Cl)cncc1Cl [Example 334, 5-(5-((R)-1-(3,5-dichloropyridin-4-yl)ethoxy)-1H-indazol-3-yl)-2-((S)-2-(hydroxymethyl)pyrrolidin-1-yl)nicotinonitrile] | 20 to 100 | 20 to 100 | 1 to 20 | 1 to 20 | 1 to 20
10 | COc1cc2[nH]nc(-c3ccc(N4CCN5C(=O)NCC5C4)nc3)c2cc1O[C@H](C)c1c(C)cnnc1C (stereo partly drawn) [Example 228, 7-(5-(5-((R)-1-(3,5-dimethylpyridazin-4-yl)ethoxy)-6-methoxy-1H-indazol-3-yl)pyridin-2-yl)hexahydroimidazo[1,5-a]pyrazin-3(2H)-one] | 1 to 20 | 1 to 20 | 1 to 20 | 1 to 20 | 1 to 20
11 | Cc1cnnc(C)c1[C@@H](C)Oc1ccc2[nH]nc(-c3cnc(N4CCN5C(=O)NCC5C4)c(C#N)c3)c2c1 (stereo partly drawn) [Example 325, 5-(5-((R)-1-(3,5-dimethylpyridazin-4-yl)ethoxy)-1H-indazol-3-yl)-2-(3-oxohexahydroimidazo[1,5-a]pyrazin-7(1H)-yl)nicotinonitrile] | 20 to 100 | 1 to 20 | 1 to 20 | 1 to 20 | 1 to 20
12 | C[C@@H](Oc1ccc2[nH]nc(-c3ccc(N4CC5(COC5)C4)nc3)c2c1)c1c(Cl)cnnc1Cl [Example 229, (R)-6-(5-(5-(1-(3,5-dichloropyridazin-4-yl)ethoxy)-1H-indazol-3-yl)pyridin-2-yl)-2-oxa-6-azaspiro[3.3]heptane] | > 300 | 100 to 300 | 20 to 100 | 20 to 100 | > 300
13 | COC(=O)N1CC2(C1)CN(c1ccc(-c3n[nH]c4ccc(O[C@@H](C)c5c(Cl)cnc(F)c5Cl)cc34)cn1)C2 [Example 198, methyl 6-[5-[5-[(1S)-1-(3,5-dichloro-2-fluoro-4-pyridyl)ethoxy]-1H-indazol-3-yl]-2-pyridyl]-2,6-diazaspiro[3.3]heptane-2-carboxylate] | > 300 | > 300 | 100 to 300 | 20 to 100 | > 300
14 | C[C@@H](Oc1ccc2[nH]nc(-c3ccc(N4CC5(CNC5)C4)nc3)c2c1)c1c(Cl)cncc1Cl [Example 45, 3-[6-(2,6-diazaspiro[3.3]heptan-2-yl)-3-pyridyl]-5-[(1R)-1-(3,5-dichloro-4-pyridyl)ethoxy]-1H-indazole] | 1 to 20 | 1 to 20 | 1 to 20 | 1 to 20 | 1 to 20
15 | CCN1C2CC1CN(c1ccc(-c3n[nH]c4cc(OC)c(O[C@H](C)c5c(C)cnnc5C)cc34)cn1)C2 [Example 213, 3-(5-(5-((R)-1-(3,5-dimethylpyridazin-4-yl)ethoxy)-6-methoxy-1H-indazol-3-yl)pyridin-2-yl)-6-ethyl-3,6-diazabicyclo[3.1.1]heptane] | 1 to 20 | – | 1 to 20 | 1 to 20 | 1 to 20
16 | Cc1cnnc(C)c1[C@@H](C)Oc1ccc2[nH]nc(-c3cnc(N4CCCC4)c(C#N)c3)c2c1 [Example 173, 5-[5-[(1R)-1-(3,5-dimethylpyridazin-4-yl)ethoxy]-1H-indazol-3-yl]-2-pyrrolidin-1-yl-pyridine-3-carbonitrile] | 100 to 300 | – | 20 to 100 | 20 to 100 | 1 to 20
17 | C[C@@H](Oc1ccc2[nH]nc(-c3ccc(N4CC5(CCOC5)C4)nc3)c2c1)c1c(Cl)cnnc1Cl [Example 223, (R)-2-(5-(5-(1-(3,5-dichloropyridazin-4-yl)ethoxy)-1H-indazol-3-yl)pyridin-2-yl)-6-oxa-2-azaspiro[3.4]octane] | – | 100 to 300 | 20 to 100 | 20 to 100 | –

Reference: patent publication US20240109865A1, “INDAZOLE COMPOUNDS AS KINASE INHIBITORS” (TYRA BIOSCIENCES, INC., priority 2020, published 2024)
